A word on the mortality: it is the percentage killed. The term melting point denotes the temperature of the solid-liquid transition.

Here are results for 23 compounds from patent US6589914B2, “Dihalopropene compounds, insecticidal/acaridcidal agents containing same, and intermediates for their production” (Sumitomo Chemical Company, Limited, priority 1994, dated 2003).

One data set deals with Plutella xylostella. Kind of data set: Insecticidal test against Plutella xylostella (spray on potted cabbage). The format is in vivo. The following applies: 96 h. Here is the method: A chemical solution containing an active ingredient at 50 ppm, which had been prepared by diluting an emulsifiable concentrate of the test compound obtained according to Formulation Example 1 with water containing spreading agent RINOU (Nihon Nouyaku K.K.) to a degree such that the spreading agent had been 1000-fold diluted, was sprayed at a volume 25 ml over each pot of a potting cabbage at the five leaf stage. The treated plants were air dried, on which ten third-instar larvae of Plutella xylostella were set free. After 4 days, the mortality was determined.

A further data set relates to Heliothis virescens. The experiment in a line: Insecticidal test against Heliothis virescens (treated artificial diet). In kind it is in vivo. The following applies: 144 h. Here is the method:
A dilution containing an active ingredient at 100 ppm, which had been prepared by diluting with water an emulsifiable concentrate of the test compound obtained according to Formulation Example 1, was incorporated at a volume of 0.2 ml in an artificial diet. A second-instar larva of H. virescens was given the diet and bred in a plastic vessel. Ten insects were used by each treatment. After 6 days, the mortality was determined.

The next data set deals with Spodoptera litura. The experiment in a line: Insecticidal test against Spodoptera litura (treated artificial diet). The format is in vivo. The following applies: 144 h, active ingredient at 500 ppm, 2 ml in 13 g artificial diet, fourth-instar larvae, after 6 days. The protocol: A 200-fold dilution containing an active ingredient at 500 ppm, which had been prepared by diluting with water an emulsifiable concentrate of the test compound obtained according to Formulation Example 1, was absorbed at a volume of 2 ml in 13 g of an artificial diet for Spodoptera litura, which had been prepared in a polyethylene cup having a diameter of 11 cm. Ten fourth-instar larvae of Spodoptera litura were set free in the cup. After 6 days, the survival of larvae was examined to determine the mortality. The test was conducted in duplicate.

The next data set concerns Tetranychus urticae Koch. The experiment in a line: Test against Tetranychus urticae Koch (spray and soil drench on potted bean). In kind it is in vivo. The following applies: active ingredient at 500 ppm, 15 ml sprayed per pot plus 2 ml soil drench, after 8 days. Here is the method:
Ten female adults of Tetranychus urticae Koch per one leaf were allowed to parasitize to a potting bean at the primary leaf stage harvested for 7 days after seeding, and these pots were placed in a thermostated room at 25° C. After 6 days, a chemical solution containing an active ingredient at 500 ppm, which had been prepared by diluting with water an emulsifiable concentrate of the test compound obtained according to Formulation Example 1, was sprayed at a volume of 15 ml over each pot on a turntable. At the same time, 2 ml of the same solution was drenched in the soil. After 8 days, the degree of damage on the respective plants caused by Tetranychus urticae Koch was examined. The effects were determined according to the following criteria:
−: Damage is scarcely observed.
+: Damage is slightly observed.
++: Damage is observed at the same level as in the non-treated field.

[1] abbreviates: active ingredient at 50 ppm, 25 ml sprayed per pot of cabbage, third-instar larvae, after 4 days, read-out: mortality.
The mark [2] stands for this setting: active ingredient at 100 ppm, 0.2 ml in artificial diet, second-instar larva, after 6 days, read-out: mortality.

Read-outs that look alike come from different tables or passages of the source.

In the case of `FC(F)(F)c1ccc(OCCCOc2c(Cl)cc(OCC=C(Cl)Cl)cc2Cl)nc1` [Compound 36, 3,5-Dichloro-4-(3-(5-trifluoromethyl-2-pyridyloxy)propyloxy)-1-(3,3-dichloro-2-propenyloxy)benzene], the mortality at 50 ppm in the data set on Plutella xylostella is at least 80%. Also, the mortality at 100 ppm in the data set with Heliothis virescens was at least 80%. As for `ClC(Cl)=CCOc1cc(Cl)c(NCCCOc2ccccn2)c(Cl)c1` [Compound 71, 3,5-Dichloro-4-(3-(2-pyridyloxy)propylamino)-1-(3,3-dichloro-2-propenyloxy)benzene], the melting point was 76.2 °C. In turn, `ClC(Cl)=CCOc1cc(Cl)c(OCc2ccc(Cl)nc2Cl)c(Cl)c1` [Compound 2, 3,5-Dichloro-4-(2,6-dichloro-3-pyridylmethyloxy)-1-(3,3-dichloro-2-propenyloxy)benzene] had a mortality at 500 ppm in the data set with Spodoptera litura of at least 80%. `ClC(Cl)=CCOc1cc(Cl)c(OCCc2cccs2)c(Cl)c1` [Compound 10, 3,5-Dichloro-4-(2-(2-thienyl)ethoxy)-1-(3,3-dichloro-2-propenyloxy)benzene]: the “degree of damage on the plants caused by Tetranychus urticae Koch” value (“degree of damage on the plants caused” below) with Tetranychus urticae Koch is listed as ““−” or “+””. Regarding `O=C(OCCCOc1c(Cl)cc(OCC=C(Cl)Cl)cc1Cl)c1cnc2ccccc2c1` [Compound 28, 3-(2,6-Dichloro-4-(3,3-dichloro-2-propenyloxy)phenoxy)propyl 3-quinolinate], the melting point came to 92.3 °C.

On to `ClC(Cl)=CCOc1cc(Cl)c(OCCCSc2nc3ccccc3[nH]2)c(Cl)c1` [Compound 39, 3,5-Dichloro-4-(3-(2-benzimidazolylthio)propyloxy)-1-(3,3-dichloro-2-propenyloxy)benzene], for which the melting point is 120.7 °C. Same read-out and setting: the figure for `ClC(Cl)=CCOc1cc(Cl)c(OCc2ccncc2)c(Cl)c1` [Compound 9, 3,5-Dichloro-4-(4-pyridylmethyloxy)-1-(3,3-dichloro-2-propenyloxy)benzene] is 74 °C. On to `ClC(Cl)=CCOc1cc(Cl)c(OCCCSc2ccccn2)c(Cl)c1` [Compound 30, 3,5-Dichloro-4-(3-(2-pyridylthio)propyloxy)-1-(3,3-dichloro-2-propenyloxy)benzene], for which the “degree of damage on the plants caused” value in the data set with Tetranychus urticae Koch is ““−” or “+””. Consider `ClC(Cl)=CCOc1cc(Cl)c(OCCc2ccsc2)c(Cl)c1` [Compound 14, 3,5-Dichloro-4-(2-(3-thienyl)ethoxy)-1-(3,3-dichloro-2-propenyloxy)benzene], for which the mortality at 500 ppm in the data set with Spodoptera litura is at least 80%. For the compound `ClC(Cl)=CCOc1cc(Cl)c(OCCCc2ccncc2)c(Cl)c1` [Compound 15, 3,5-Dichloro-4-(3-(4-pyridyl)propyloxy)-1-(3,3-dichloro-2-propenyloxy)benzene], in the data set on Tetranychus urticae Koch, the “degree of damage on the plants caused” value is reported as ““−” or “+””.

Take `FC(F)(F)c1cnc(OCCCOc2c(Cl)cc(OCC=C(Cl)Cl)cc2Cl)c(Cl)c1` [Compound 37, 3,5-Dichloro-4-(3-(3-chloro-5-trifluoromethyl-2-pyridyloxy)propyloxy)-1-(3,3-dichloro-2-propenyloxy)benzene]: the mortality at 50 ppm in the data set on Plutella xylostella (setting [1]) was at least 80%. Compound `ClC(Cl)=CCOc1cc(Cl)c(OCCCc2cccnc2)c(Cl)c1` [Compound 20, 3,5-Dichloro-4-(3-(3-pyridyl)propyloxy)-1-(3,3-dichloro-2-propenyloxy)benzene] displayed a melting point of 48.3 °C. In the case of `ClC(Cl)=CCOc1cc(Cl)c(OCCSc2ccncc2)c(Cl)c1` [Compound 19, 3,5-Dichloro-4-(2-(4-pyridylthio)ethoxy)-1-(3,3-dichloro-2-propenyloxy)benzene], the melting point was 74.7 °C. `ClC(Cl)=CCOc1cc(Cl)c(OCc2ccco2)c(Cl)c1` [Compound 7, 3,5-Dichloro-4-(2-furanylmethyloxy)-1-(3,3-dichloro-2-propenyloxy)benzene] yielded a melting point of 46 °C. In addition, in the data set with Tetranychus urticae Koch, the “degree of damage on the plants caused” value is ““−” or “+””.

On to `FC(F)(F)c1ccc(OCCCCCOc2c(Cl)cc(OCC=C(Cl)Cl)cc2Cl)nc1` [Compound 43, 3,5-Dichloro-4-(5-(5-trifluoromethyl-2-pyridyloxy)pentyloxy)-1-(3,3-dichloro-2-propenyloxy)benzene], for which, in the data set on Heliothis virescens (setting [2]), the mortality at 100 ppm was at least 80%. As to `FC(F)(F)c1ccc(OCCCCOc2c(Cl)cc(OCC=C(Cl)Cl)cc2Cl)nc1` [Compound 42, 3,5-Dichloro-4-(4-(5-trifluoromethyl-2-pyridyloxy)butyloxy)-1-(3,3-dichloro-2-propenyloxy)benzene], the mortality at 50 ppm in the data set on Plutella xylostella (setting [1]) is at least 80%. In addition, in the data set with Heliothis virescens (setting [2]), the mortality at 100 ppm was at least 80%. In turn, `CN1C=CSC1CCOc1c(Cl)cc(OCC=C(Cl)Cl)cc1Cl` (stereo not shown) [Compound 11, 3,5-Dichloro-4-(2-(3-methylthiazol-2-yl)ethoxy)-1-(3,3-dichloro-2-propenyloxy)benzene] registered a melting point of 30.4 °C. For `ClC(Cl)=CCOc1cc(Cl)c(OCc2ccc(Cl)nc2)c(Cl)c1` [Compound 1, 3,5-Dichloro-4-(6-chloro-3-pyridylmethyloxy)-1-(3,3-dichloro-2-propenyloxy)benzene], in the data set with Tetranychus urticae Koch, the “degree of damage on the plants caused” value is ““−” or “+””. Moreover, the mortality at 500 ppm with Spodoptera litura is at least 80%. For `ClC(Cl)=CCOc1cc(Cl)c(OCCc2nc3ccccc3o2)c(Cl)c1` [Compound 32, 3,5-Dichloro-4-(2-(2-benzoxazolyl)ethoxy)-1-(3,3-dichloro-2-propenyloxy)benzene], the melting point is 61.2 °C. For the same compound, the “degree of damage on the plants caused” value in the data set with Tetranychus urticae Koch was ““−” or “+””. For `ClC(Cl)=CCOc1cc(Cl)c(OCc2cccs2)c(Cl)c1` [Compound 6, 3,5-Dichloro-4-(2-thienylmethyloxy)-1-(3,3-dichloro-2-propenyloxy)benzene], the melting point was 44.6 °C. Same read-out and setting: the figure for `ClC(Cl)=CCOc1cc(Cl)c(OCc2cccnc2)c(Cl)c1` [Compound 8, 3,5-Dichloro-4-(3-pyridylmethyloxy)-1-(3,3-dichloro-2-propenyloxy)benzene] is 105.9 °C; for `ClC(Cl)=CCOc1cc(Cl)c(OCc2ccccn2)c(Cl)c1` [Compound 5, 3,5-Dichloro-4-(2-pyridylmethyloxy)-1-(3,3-dichloro-2-propenyloxy)benzene] it is 48.2 °C.

In the case of `CC(C)(COc1c(Cl)cc(OCC=C(Cl)Cl)cc1Cl)Oc1cccc(Cl)n1` [Compound 33, 3,5-Dichloro-4-(2-methyl-2-(2-(6-chloro)pyridyloxy)propyloxy)-1-(3,3-dichloro-2-propenyloxy)benzene], the “degree of damage on the plants caused” value in the data set with Tetranychus urticae Koch is ““−” or “+””.
